Reference: ChEMBL document CHEMBL3244037, “6-Aryl-4H-s-triazolo[4,3-a][1,4]benzodiazepines. Influence of 1-substitution on pharmacological activity” (J Med Chem, 1979)

Assays:
Mus musculus [1] = assay: […] activity in ip dosed albino CF1 mouse assessed as potentiation of gamma-butyrolactone-induced sleep; format: functional
Mus musculus [2] = assay: Reduction of hypoxic stress in ip dosed albino CF1 mouse assessed as prolongation of hypoxic survival time; format: functional
Mus musculus [3] = assay: Inhibition of oxotremorine-induced hypothermia in ip dosed albino CF1 mouse; format: functional
Mus musculus [4] = assay: Inhibition of amphetamine aggregation toxicity in ip dosed albino CF1 mouse compound administered 1 hr prior to challenge measured after 2 hrs; format: functional
Mus musculus [5] = assay: Inhibition of apomorphine-induced cage climbing in ip dosed albino CF1 mouse compound administered prior to challenge measured for 5 mins after 5 mins of challenge; format: functional
Mus musculus [6] = assay: Anticonvulsant activity in ip dosed albino CF1 mouse assessed as inhibition of bicucullin-induced tonic extensor convulsions; format: functional
Mus musculus [7] = assay: Potentiation of yohimbine toxicity in ip dosed aggregated albino CF1 mouse; format: organism-based
Mus musculus [8] = assay: Potentiation of apomorphine-induced gnawing in ip dosed albino CF1 mouse; format: organism-based
Mus musculus [9] = assay: Anticonvulsant activity in ip dosed albino CF1 mouse assessed as protection against pentylenetetrazole-induced clonic convulsions; format: functional
Mus musculus [10] = assay: Hypothermic activity in ip dosed albino CF1 mouse assessed as effect on body temperature measured after 45 mins; format: functional; details: 0.75 h

SMILES | ED50 (Mus musculus [1]) [mg/kg] | ED50 (Mus musculus [2]) [mg/kg] | ED50 (Mus musculus [3]) [mg/kg] | ED50 (Mus musculus [4]) [mg/kg] | ED50 (Mus musculus [5]) [mg/kg] | ED50 (Mus musculus [6]) [mg/kg] | ED50 (Mus musculus [7]) [mg/kg] | ED50 (Mus musculus [8]) [mg/kg] | ED50 (Mus musculus [9]) [mg/kg] | ED50 (Mus musculus [10]) [mg/kg]
Clc1ccc2c(c1)C(c1ccccc1)=NCc1nnc(Br)n1-2 | 2 | 6 | > 50 | > 50 | > 50 | 3 | > 50 | > 50 | 2.3 | > 50
Clc1ccc2c(c1)C(c1ccccc1)=NCc1nnc(N3CCOCC3)n1-2 | 4.4 | > 50 | 35.4 | > 50 | 40 | 3.1 | > 50 | 35.4 | 2.6 | 7
CN(C)c1nnc2n1-c1ccc(Cl)cc1C(c1ccccc1)=NC2 | 0.3 | 9 | 21 | > 50 | > 50 | 1.1 | > 50 | > 50 | 0.9 | > 50
N#Cc1nnc2n1-c1ccc(Cl)cc1C(c1ccccc1)=NC2 | 4 | > 50 | > 50 | > 50 | > 50 | 3 | > 50 | > 50 | – | 10
COc1nnc2n1-c1ccc(Cl)cc1C(c1ccccc1)=NC2 | 0.1 | > 50 | > 50 | > 50 | > 50 | 0.5 | > 50 | > 50 | 0.14 | 10
Sc1nnc2n1-c1ccc(Cl)cc1C(c1ccccc1)=NC2 | 0.8 | 9 | > 50 | > 50 | > 50 | 3 | > 50 | > 50 | 2.3 | 9
COCc1nnc2n1-c1ccc(Cl)cc1C(c1ccccc1)=NC2 | 2 | 20 | > 50 | > 50 | > 50 | 0.6 | > 50 | > 50 | 2 | 30
OCc1nnc2n1-c1ccc(Cl)cc1C(c1ccccc1)=NC2 | 0.1 | 0.9 | 20 | > 50 | > 50 | 0.2 | > 50 | > 50 | 0.1 | > 50
N#CCc1nnc2n1-c1ccc(Cl)cc1C(c1ccccc1)=NC2 | 0.07 | 2 | > 50 | > 50 | 40 | 0.2 | > 50 | > 50 | 0.63 | > 50
CC1N=C(c2ccccc2)c2cc(Cl)ccc2-n2c1nnc2N1CCN(C)CC1 (configuration not stated) | 0.7 | 4.4 | 4.4 | > 50 | 50 | 2.6 | 8.8 | > 50 | 3.1 | 29.7
CC1N=C(c2ccccc2)c2cc(Cl)ccc2-n2c1nnc2N1CCOCC1 (configuration not stated) | 0.7 | 3 | 10 | > 50 | > 50 | 3 | 20 | > 50 | 0.4 | > 50
CC1=NC(c2ccccc2)c2cc(Cl)ccc2-n2c1nnc2N1CCN(C)CC1 (configuration not stated) | > 50 | – | 40 | > 50 | > 50 | > 50 | > 50 | > 50 | > 50 | > 50
CC1=NC(c2ccccc2)c2cc(Cl)ccc2-n2c1nnc2N1CCOCC1 (configuration not stated) | > 50 | – | > 50 | > 50 | > 50 | > 50 | > 50 | > 50 | > 50 | > 50
Cc1nnc2n1-c1ccc(N)cc1C(c1ccccc1Cl)=NC2 | 0.7 | 4 | > 50 | > 50 | > 50 | 0.9 | > 50 | > 50 | 2 | 30
Brc1ccc2c(c1)C(c1ccccn1)=NCc1nncn1-2 | 0.04 | 0.2 | > 50 | > 50 | > 50 | 0.4 | 42 | > 50 | 0.3 | > 50
Clc1ccc2c(c1)C(c1ccccc1)=NCc1nnc(Cl)n1-2 | 3 | > 50 | > 50 | > 50 | > 50 | 4 | > 50 | > 50 | 3.1 | > 50
